Like-named read-outs stand apart in the source and are kept apart here.

Data set [1] has as its system U2OS cells. The experiment in a line: Multiplex high-content protocol (nuclei gating, tubulin, mitochondrial mass, membrane permeability). Type of data set: cell-based, human. The method, then: Using the CQ1 high-content confocal microscope (Yokogawa), cellular shape and fluorescence was measured before and 12 h as well as 24 h after compound treatment. All compounds were diluted in DMSO to a concentration of 10 mM.
The rather large spacing distance was used to create a robust readout, compensating potential plate variations and enabling automated screening without the use of autofocus. The overlap of the fluorescence emission spectra of the dyes was neglectable for all but the MitoTracker Red and Annexin V Alexa Fluor 680 (Supplementary Figure S9).
All images were analyzed using the CellPathfinder software (Yokogawa). Segmentation of cells was performed as described earlier. First, the cells are classified in Hoechst High Intensity Objects or Normal Intensity Objects (Supplementary Table S7). All normal gated cells are further classified in healthy, fragmented or pyknosed nuclei (Supplementary Table S7). The pyknosed cells are gated in mitotic or apoptotic cells using seven features for the cell body and five features for the cell nuclei according to their Annexin V staining intensity (Supplementary Table S7). All cells that were classified as including a healthy nucleus are further gated into three phenotypic classes. […] Growth rate was calculated against non-treated cells and cells treated with DMSO 0.1% [61].

Data set [2] has as its system HCT116-FUCCI cells. Details: method as in per compound as in column reference of Table S3. The following applies: literature annotation in Table S3; ref per compound as in Table S3; cited from earlier work.
The subject of data set [3] is HCT116-FUCCI cells. The experiment in a line: FUCCI cell cycle assay with nuclear gating. It counts as cell-based, human. The conditions noted are these: for change of FUCCI nuclei population in comparison to DMSO / main nuclei color: 10 µM; for change of FUCCI nuclei population in comparison to DMSO: up to 70 h; for IC50: Homo sapiens, average and SEM of two independent experiments; for main nuclei color: Table S3. The method, then:
For generation of a stable cell line, including the florescent ubiquitination-base cell cycle indicator FUCCI, the plasmid-based transposon system Sleeping Beauty was used. Vector (pSBbi_Fucci) and the Transposase SB100X have been described previously. […] Two days after transfection, cells were selected over 10 days using puromycin (1 µg/mL) and cultivated afterwards for two more weeks in McCoys 5A plus L-Glutamine (Gibco) supplemented by 10% FBS (Gibco) and Penicillin/Streptomycin (Gibco).
Fluorescence and cellular shape were measured before and after compound treatment for 72 h every 12 h using the CQ1 high-content confocal microscope (Yokogawa). […]
Image analysis was performed using the CellPathfinder software (Yokogawa). Segmentation of cells was performed as described earlier. First, the cells are classified in Hoechst High Intensity Objects or Normal Intensity Objects (Supplementary Table S7). All normal gated cells are further classified in healthy, fragmented or pyknosed nuclei (Supplementary Table S7). […] Total cell count was normalized against total cell count of cells treated with 0.1% DMSO.

Data set [4] deals with U2OS cells. The following applies: High-Via Extend protocol, cell line and unit inferred.
For data set [5], the system named is U2OS cells. The experiment in a line: cells. The following applies: Homo sapiens.
The conditions of data set [6]: source not stated; cited from earlier work.
Another data set relates to FGFR. The conditions noted are these: cited from earlier work.
[7] abbreviates: read-out: IC 50 14 h, Table S2, 14 h.
[8] abbreviates: read-out: IC 50 26 h, Table S2, 26 h.
Setting [9] is: read-out: IC 50 42 h, Table S2, 42 h.
The mark [10] stands for this setting: read-out: IC 50 56 h, Table S2, 56 h.

In the case of `COc1cccc2c1C(=O)c1c(O)c3c(c(O)c1C2=O)C[C@@](O)(C(C)=O)C[C@@H]3O[C@H]1C[C@H](N)[C@H](O)[C@H](C)O1` [daunorubicin], the “healthy nuclei (healthy cells)” value in the data set on U2OS cells [1] (U2OS, 10 µM, 24 h) is “less than 50%”. The “known cell cycle effect” value in the data set with HCT116-FUCCI cells [2] was “breaks, cell cycle arrest”. For the same compound, in the data set on HCT116-FUCCI cells [3], the “change of FUCCI nuclei population in comparison to DMSO” value (from here on “change of FUCCI nuclei population”) is “More yellow nuclei”.

As for `CCC(=O)N1CCN(c2ccc(-n3c(=O)ccc4cnc5ccc(-c6cnc7ccccc7c6)cc5c43)cc2C(F)(F)F)CC1` [torin], the IC50 with U2OS cells [4] (setting [7]) came to 800 nM; in the data set with U2OS cells [4] (setting [8]), 800 nM; in the data set with U2OS cells [4] (setting [9]) it was 700 nM; with U2OS cells [4] (setting [10]), 700 nM.

As to `CC(=O)O[C@H]1C(=O)[C@@]2(C)[C@H]([C@H](OC(=O)c3ccccc3)[C@]3(O)C[C@H](OC(=O)[C@H](O)[C@@H](NC(=O)c4ccccc4)c4ccccc4)C(C)=C1C3(C)C)[C@]1(OC(C)=O)CO[C@@H]1C[C@@H]2O` [paclitaxel], the IC50 in the data set with U2OS cells [5] (14 h, read-out: IC 50 14 h) is > 2000 nM; in the data set on U2OS cells [5] (26 h, read-out: IC 50 26 h) it was 100 nM; in the data set with U2OS cells [5] (42 h, read-out: IC 50 42 h), 60 nM; in the data set on U2OS cells [5] (56 h, read-out: IC 50 56 h) it was 50 nM. For the same compound, the “known cell cycle effect” value in the data set on HCT116-FUCCI cells [2] is recorded as “concentration-dependent”. Further, the “change of FUCCI nuclei population” value in the data set with HCT116-FUCCI cells [3] is “increase in red nuclei”.

In the case of `O=C1c2c(O)ccc(O)c2C(=O)c2c(NCCNCCO)ccc(NCCNCCO)c21` [mitoxantrone], in the data set on HCT116-FUCCI cells [2], the “known cell cycle effect” value is “delay in cell cycle”. The “change of FUCCI nuclei population” value in the data set with HCT116-FUCCI cells [3] is given as “increase in green nuclei”.

Turning to `CC[C@@]1(O)C(=O)OCc2c1cc1n(c2=O)Cc2cc3ccccc3nc2-1` [camptothecin], the IC50 worked out at 2600 nM with U2OS cells [5] (14 h, read-out: IC 50 14 h); 4700 nM with U2OS cells [5] (14 h, read-out: IC50, normalized healthy cell count); 6100 nM with U2OS cells [5] (14 h, read-out: IC50, normalized healthy nuclear count); 2300 nM in the data set on U2OS cells [5] (26 h, read-out: IC 50 26 h); 1800 nM with U2OS cells [5] (28 h, read-out: IC50, normalized healthy cell count); 1700 nM in the data set with U2OS cells [5] (28 h, read-out: IC50, normalized healthy nuclear count). Moreover, the IC50 in the data set on U2OS cells [5] (42 h, read-out: IC 50 42 h) worked out at 1500 nM; with U2OS cells [5] (42 h, read-out: IC50, normalized healthy cell count), 290 nM; with U2OS cells [5] (42 h, read-out: IC50, normalized healthy nuclear count), 438 nM; in the data set with U2OS cells [5] (56 h, read-out: IC 50 56 h) it was 1100 nM; in the data set on U2OS cells [5] (56 h, read-out: IC50, normalized healthy cell count), 50.9 nM; in the data set with U2OS cells [5] (56 h, read-out: IC50, normalized healthy nuclear count) it was 43.4 nM. In the data set with U2OS cells [1] (U2OS, 1 µM), the “Hoechst High Intensity Objects (Hoechst intensity compared to normal nuclei)” value is listed as “more than 50%”. Further, in the data set with U2OS cells [1] (U2OS, 10 µM, 24 h), the “healthy nuclei (healthy cells)” value is reported as “less than 50%”. Moreover, the “Hoechst High Intensity Objects” value in the data set on U2OS cells [1] (U2OS, 10 µM, after 24 h, in one of two biological replicates) is reported as > 30%. The “known cell cycle effect” value with HCT116-FUCCI cells [2] was “mitotic arrest”. In addition, the “change of FUCCI nuclei population” value in the data set with HCT116-FUCCI cells [3] is listed as “increase in green nuclei”.

As for `CCN(CC)CCCCNc1ncc2cc(-c3cc(OC)cc(OC)c3)c(NC(=O)NC(C)(C)C)nc2n1` [PD173074], in data set [6], the lipophilicity (logP) is 4.7. Besides, the cellular activity entry with FGFR is recorded as “less than 25 nM”. Further, in the data set with U2OS cells [1] (U2OS, 1 µM), the “Hoechst High Intensity Objects (Hoechst intensity compared to normal nuclei)” value is given as “more than 50%” and the “compound precipitation in assay” value was “precipitated”.

`COc1ccc(C[C@H](N)C(=O)N[C@H]2[C@@H](O)[C@H](n3cnc4c(N(C)C)ncnc43)O[C@@H]2CO)cc1` [puromycin]: in the data set on U2OS cells [1] (10 µM), the “mitochondrial mass, first analysis gating all cells independently of viability” value was “increased mitochondrial mass” and the “tubulin effect, first analysis gating all cells independently of viability” value is reported as “tubulin effects”. Besides, the “healthy nuclei (healthy cells)” value in the data set with U2OS cells [1] (U2OS, 10 µM, 24 h) is recorded as “less than 50%”. Besides, the “known cell cycle effect” value in the data set on HCT116-FUCCI cells [2] is recorded as “effect on cell cycle”.

As to `Cc1sc2c(c1C)C(c1ccc(Cl)cc1)=N[C@@H](CC(=O)OC(C)(C)C)c1nnc(C)n1-2` [JQ1], the IC50 was found to be 9700 nM in the data set on U2OS cells [4] (setting [7]), 9000 nM in the data set on U2OS cells [4] (setting [8]), 13700 nM with U2OS cells [4] (setting [9]) and 200 nM with U2OS cells [4] (setting [10]).

As for `O=c1cc(-c2ccccc2)oc2c1ccc1ccccc12` [α-naphthoflavone], in the data set on HCT116-FUCCI cells [2], the “known cell cycle effect” value is recorded as “G1 cell cy cle arrest”. Also, in the data set on HCT116-FUCCI cells [3], the “change of FUCCI nuclei population” value was “increase in red nuclei”.

On to `COc1cccc2c1C(=O)c1c(O)c3c(c(O)c1C2=O)C[C@@](O)(C(=O)CO)C[C@@H]3O[C@H]1C[C@H](N)[C@H](O)[C@H](C)O1` [doxorubicin], for which the “known cell cycle effect” value in the data set with HCT116-FUCCI cells [2] is on record as “G0/G1 cell cycle arrest”. In addition, the “change of FUCCI nuclei population” value with HCT116-FUCCI cells [3] is on record as “More yellow nuclei”.

Turning to `CNC(=O)c1nn(C)c2c1C(C)(C)Cc1cnc(Nc3ccc(N4CCN(C)CC4)cc3)nc1-2` [milciclib], the IC50 with U2OS cells [5] (14 h, read-out: IC 50 14 h) turned out to be 2100 nM; in the data set with U2OS cells [5] (26 h, read-out: IC 50 26 h), 800 nM; in the data set on U2OS cells [5] (42 h, read-out: IC 50 42 h) it was 600 nM; with U2OS cells [5] (56 h, read-out: IC 50 56 h), 500 nM; in the data set with HCT116-FUCCI cells [3] (18h, read-out: IC50(18h), normalized healthy cell count) it was 5990 ± 260 nM; with HCT116-FUCCI cells [3] (32h, read-out: IC50(32h), normalized healthy cell count), 1990 ± 350 nM. Besides, the IC50 amounted to 850 ± 90 nM with HCT116-FUCCI cells [3] (45h, read-out: IC50(45h), normalized healthy cell count) and 570 ± 50 nM in the data set on HCT116-FUCCI cells [3] (59h, read-out: IC50(59h), normalized healthy cell count). Further, in the data set with U2OS cells [1] (U2OS, 10 µM, 24 h, healthy nuclei only), the “increase in mitochondrial mass in comparison to DMSO” value is “over 60%”. For the same compound, the “known cell cycle effect” value with HCT116-FUCCI cells [2] is “G1 cell cy cle arrest”. In addition, in the data set with HCT116-FUCCI cells [3] (1 µM, after 18 h, versus DMSO), the “cell cycle population distribution of healthy gated nuclei” value is recorded as “higher population of ‘red’ nuclei”.

Regarding `CCOC(=O)Nc1cc(-c2ccc(C)c(NS(C)(=O)=O)c2)nn2c(C)nnc12` [Bromosporine], the “marked for tubulin effects while crossing no other phenotypic threshold” value in the data set with U2OS cells [1] (U2OS, 1 µM, threshold > 50%) is on record as “marked to have tubulin effects”. Also, the “known cell cycle effect” value in the data set with HCT116-FUCCI cells [2] is “increase of cells in G1”.

With `N#Cc1c2nc3ccccc3nc2n2ccc(NC(=O)c3cccs3)cc12` [HI-TOPK-032], the “known cell cycle effect” value in the data set on HCT116-FUCCI cells [2] is given as “during mitosis, G1 cell”. Also, in the data set on HCT116-FUCCI cells [3], the main nuclei color entry is reported as “yellow” and the “change of FUCCI nuclei population” value was “increased number of cells with yellow nuclei”.

For `CN1CCN(C(=O)C(C)(C)c2ccc(C(=O)Nc3cn4cc(-c5ccncc5)ccc4n3)cc2)CC1` [T3-CLK], in the data set on HCT116-FUCCI cells [2], the “known cell cycle effect” value is “G2/M cell cycle arrest”. The main nuclei color result with HCT116-FUCCI cells [3] was “green”.

The values are drawn from article PMC8878468, “Image-Based Annotation of Chemogenomic Libraries for Phenotypic Screening” (Molecules, 2022).
